Test results: patent US9062043B2, “Fused tricyclic compounds as serine-threonine protein kinase and PARP modulators” (SENHWA BIOSCIENCES, INC., priority 2006, dated 2015)
Where two headings read alike, the source gives them in different places.

Key:
[1] = system: HCT-116 human colorectal carcinoma cells; test: Cell proliferation assay, Alamar Blue, HCT-116; assay type: cell-based;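 further: cells exposed to compound for about 4 days, then Alamar Blue added and fluorescence read after about 4 h, medium-only wells as control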
[2] = system: MiaPaca human pancreatic carcinoma cells; test: Cell proliferation assay, Alamar Blue, MiaPaca; assay type: cell-based
Method: A representative cell-proliferation assay protocol using Alamar Blue dye (stored at 4° C., use 20 ul per well) is described hereafter.
c. Plate 4,000-5,000 cells per well in 100 μl of medium and seed into a 96-well plate according to the following plate layout. Add cell culture medium only to wells B10 to B12. Wells B1 to B9 have cells but no compound added.
d. Add 100 μl of 2× drug dilution to each well in a concentration shown in the plate layout above. At the same time, add 100 μl of media into the control wells (wells B10 to B12). Total volume is 200 μl/well.
e. Incubate four (4) days at 37° C., 5% CO2 in a humidified incubator.
f. Add 20 μl Alamar Blue reagent to each well.
g. Incubate for four (4) hours at 37° C., 5% CO2 in a humidified incubator.
h. Record fluorescence at an excitation wavelength of 544 nm and emission wavelength of 590 nm using a microplate reader.
In the assays, cells are cultured with a test compound for approximately four days, the dye then is added to the cells and fluorescence of […] dye is detected after approximately four hours. Different types of cells can be utilized in the assays (e.g., HCT-116 human colorectal carcinoma cells, PC-3 human prostatic cancer cells and MiaPaca human pancreatic carcinoma cells). Anti-proliferative effects of representative compounds are provided hereafter.

PARP = PARP (Homo sapiens (Human), UniProt P09874); test: PARP assay (chemiluminescent PARP assay kit, Trevigen); assay type: biochemical; conditions: for inhibition at 20 µM: read-out: PARP % inhib @ 20 uM
PARP, sequence (P09874 whole entry): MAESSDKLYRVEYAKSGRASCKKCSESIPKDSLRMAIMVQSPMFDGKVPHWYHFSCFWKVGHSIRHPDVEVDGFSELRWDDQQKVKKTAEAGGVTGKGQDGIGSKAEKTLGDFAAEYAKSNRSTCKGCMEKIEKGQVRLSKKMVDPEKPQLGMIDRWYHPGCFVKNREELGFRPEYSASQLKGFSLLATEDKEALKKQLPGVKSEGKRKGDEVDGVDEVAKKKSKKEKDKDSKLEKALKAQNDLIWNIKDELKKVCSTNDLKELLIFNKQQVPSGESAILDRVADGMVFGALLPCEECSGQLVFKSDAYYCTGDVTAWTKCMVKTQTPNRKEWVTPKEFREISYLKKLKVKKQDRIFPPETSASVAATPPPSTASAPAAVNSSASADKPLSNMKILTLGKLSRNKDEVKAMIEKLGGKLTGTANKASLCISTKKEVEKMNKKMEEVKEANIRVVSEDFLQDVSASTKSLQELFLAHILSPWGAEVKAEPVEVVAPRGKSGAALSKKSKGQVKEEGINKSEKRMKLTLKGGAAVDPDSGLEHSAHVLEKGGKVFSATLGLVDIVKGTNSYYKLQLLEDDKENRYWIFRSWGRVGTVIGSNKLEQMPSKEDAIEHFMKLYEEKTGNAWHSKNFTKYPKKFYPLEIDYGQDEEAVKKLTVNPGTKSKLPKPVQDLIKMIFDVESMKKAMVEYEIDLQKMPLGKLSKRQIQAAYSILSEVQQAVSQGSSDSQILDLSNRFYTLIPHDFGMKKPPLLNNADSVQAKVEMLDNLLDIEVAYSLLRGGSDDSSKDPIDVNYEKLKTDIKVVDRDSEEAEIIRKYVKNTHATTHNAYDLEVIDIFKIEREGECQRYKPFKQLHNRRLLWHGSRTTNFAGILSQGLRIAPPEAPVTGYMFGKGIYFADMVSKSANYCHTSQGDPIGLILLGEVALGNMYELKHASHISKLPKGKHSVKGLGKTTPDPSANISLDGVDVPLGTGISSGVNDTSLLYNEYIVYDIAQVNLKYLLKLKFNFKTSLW
Method: Modulatory activity of compounds described herein was assessed in vitro in cell-free CK2 assays. Modulatory activity of compounds described herein also are assessed in vitro in cell-free PARP assays. These assays are described hereafter.
PARP assays are conducted using a chemiluminescent PARP assay kit (Trevigen). Briefly, reactions are performed in Histone-coated strip wells, by adding 10 microliters test compound dissolved in 1×PARP Buffer (prepared by mixing 20×PARP buffer diluted with high-purity water) and 15 microliters diluted PARP-HSA enzyme (diluted in 1× PARP buffer, 0.1 unit per well) to 25 microliters PARP cocktail (prepared from 10×PARP cocktail and 10× activated DNA, both 2.5 microliters per well and 20 microliters per well of 1×PARP buffer). The reactions are incubated at ambient temperature for 60 minutes, then the liquid was removed. After washing the wells four times with PBS (200 ul), 50 microliters of STREP-HRP (Horseradish Peroxidase) solution (diluted 500-fold in 1× Strep-Diluent) was added and the reactions were allowed to incubate for 30 minutes at ambient temperature. The liquid was removed and, after washing the wells four times with PBS (200 ul), 50 microliters each of PeroxyGlo A and B (Chemiluminescent Horseradish Peroxidase substrates) are added and the resulting chemiluminescence quantified on the SpectraMax M5 plate reader.

[3] = HCT-116, Table 16, second HCT-116 column
[4] = 1 uM, Table 12, read-out: PARP % inhib @ 1 uM

| Structure (SMILES) | inhibition at 1 µM (PARP; [4]) [%] | inhibition at 20 µM (PARP; Table 12) [%] | also measured |
| --- | --- | --- | --- |
| Cc1cccc(Nc2nc3cc(C(=O)O)ccc3c3sccc23)c1 | – | – | IC50 [1, 3]: > 10 µM; IC50 ([2]; MIA PaCa-2, Table 16): > 10 µM |
| O=C(O)c1ccc2c(c1)nc(Nc1ccc(F)c(Cl)c1)c1ccsc12 | – | – | IC50 ([1]; HCT-116, Table 16, first HCT-116 column): > 10 µM; IC50 ([2]; MIA PaCa-2, Table 16): > 10 µM |
| NC(=O)c1ccc2c(c1)[nH]c(=O)c1ccsc12 | 79 | – | IC50 (PARP; Table 12): 0.06 µM |
| O=C(NC1CC1)c1ccc2c(c1)[nH]c(=O)c1ccsc12 | 69 | 90 | IC50 (PARP; Table 12): 0.5 µM |
| O=C(NCc1cccnc1)c1ccc2c(c1)[nH]c(=O)c1ccsc12 | 71 | – | – |
| CCc1cccc(Nc2nc3cc(C(=O)O)ccc3c3sccc23)c1 | – | – | IC50 [1, 3]: > 10 µM; IC50 ([2]; MIA PaCa-2, Table 16): > 10 µM |
| COCCNC(=O)c1cccc(Nc2nc3cc(-c4nnn[nH]4)ccc3c3sccc23)c1 | – | – | IC50 [1, 3]: > 10 µM; IC50 ([2]; MIA PaCa-2, Table 16): > 10 µM |
| O=C(O)c1ccc2c(c1)[nH]c(=O)c1cc(Br)sc12 | 39 | 84 | – |
| O=c1[nH]c2cc(-c3nn[nH]n3)ccc2c2sccc12 | 39 | – | – |
| O=C(Nc1ccccc1C(=O)O)c1ccc2c(c1)[nH]c(=O)c1ccsc12 | 12 | – | – |
| O=C(O)c1ccc2c(c1)[nH]c(=O)c1ccsc12 | 58 | 90 | IC50 (PARP; Table 12): 1 µM |
| O=C(O)CNC(=O)c1ccc2c(c1)[nH]c(=O)c1ccsc12 | 31 | 97 | – |
| O=C(O)c1ccc2c(c1)nc(Nc1ccc3[nH]ccc3c1)c1ccsc12 | – | – | IC50 [1, 3]: > 10 µM; IC50 ([2]; MIA PaCa-2, Table 16): > 10 µM |
| O=C(O)c1ccc2c3sccc3c(=O)n(CCCO)c2c1 | 21 | – | – |
| CNS(=O)(=O)c1cccc(Nc2nc3cc(C(=O)O)ccc3c3sccc23)c1 | – | – | IC50 [1, 3]: > 10 µM; IC50 ([2]; MIA PaCa-2, Table 16): > 10 µM |
| COc1ccccc1NC(=O)c1ccc2c(c1)[nH]c(=O)c1ccsc12 | 0 | 24 | – |

| Structure (SMILES) | inhibition at 1 µM (PARP; [4]) [%] | inhibition at 20 µM (PARP; Table 12) [%] | also measured |
| --- | --- | --- | --- |
| CC(=O)N1CCN(C(=O)c2cccc(Nc3nc4cc(-c5nnn[nH]5)ccc4c4sccc34)c2)CC1 | – | – | IC50 [1, 3]: > 10 µM; IC50 ([2]; MIA PaCa-2, Table 16): > 10 µM |
| COCCNC(=O)c1ccc2c(c1)[nH]c(=O)c1ccsc12 | 65 | 93 | IC50 (PARP; Table 12): 0.4 µM |
| O=c1[nH]c2cc(CO)ccc2c2sccc12 | 74 | – | IC50 (PARP; Table 12): 0.4 µM |
| COc1ccc(CCNC(=O)c2ccc3c(c2)[nH]c(=O)c2ccsc23)cc1OC | 15 | 67 | – |
| CN(C)CCn1c(=O)c2ccsc2c2ccc(C(=O)O)cc21 | 5 | – | – |
| O=C(O)c1ccc2c(c1)nc(Nc1cccc(S(=O)(=O)NC3CC3)c1)c1ccsc12 | – | – | IC50 [1, 3]: > 10 µM; IC50 ([2]; MIA PaCa-2, Table 16): > 10 µM |
| O=C(O)c1ccc2c(c1)nc(Nc1ccc(F)c(F)c1)c1ccsc12 | – | – | IC50 [1, 3]: 0.83 µM; IC50 ([2]; MIA PaCa-2, Table 16): > 10 µM |
| O=C(NCc1ccncc1)c1ccc2c(c1)[nH]c(=O)c1ccsc12 | 75 | – | IC50 (PARP; Table 12): 1 µM |
| COC(=O)CNC(=O)c1ccc2c(c1)[nH]c(=O)c1ccsc12 | 47 | 93 | – |
| O=C(O)CCNC(=O)c1ccc2c(c1)[nH]c(=O)c1ccsc12 | 35 | 95 | – |
| O=C(O)c1ccc2c(c1)nc(NCc1cccnc1)c1nc(NC3CC3)ncc12 [drawing 1083] | – | – | IC50 ([1]; HCT-116, Table 18): > 10 µM; IC50 ([2]; MIA PaCa-2, Table 18): 13.8 µM |
| O=C(O)c1ccc2c(c1)nc(Nc1ccccc1)c1ccccc12 | – | – | inhibition at 1 µM (PARP; at 1 μM, Table 10, read-out: PARP Inhibition %): 9% |
| CCCNC(=O)c1ccc2c(c1)[nH]c(=O)c1ccsc12 | 65 | 88 | IC50 (PARP; Table 12): 1 µM |
| CC(=O)N1CCN(C(=O)c2ccc3c(c2)[nH]c(=O)c2ccsc23)CC1 | 71 | 94 | IC50 (PARP; Table 12): 0.3 µM |
| CN(C)CCNc1nc2cc(C(=O)O)ccc2c2cnc(NC3CC3)nc12 [drawing 1100] | – | – | IC50 ([2]; MIA PaCa-2, Table 18): > 50 µM |
